Activity calls are given as the source filed them.
Key:
[1] = tested on: HEK293; assay: cells; details: Homo sapiens
[2] = target: Cytochrome P450 2D6 (Homo sapiens, UniProt P10635);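 further: CYP2D6 member of a cytochrome P450 panel assay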
[3] = tested on: HEK293; assay: cells; details: Homo sapiens; remark: listed apart in the source
[4] = target: T1, Cytochrome P450 1A2 (Homo sapiens, UniProt P05177);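 further: PubChem cytochrome P450 panel assay, CYP1A2 panel member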
T1 sequence (P05177 whole entry): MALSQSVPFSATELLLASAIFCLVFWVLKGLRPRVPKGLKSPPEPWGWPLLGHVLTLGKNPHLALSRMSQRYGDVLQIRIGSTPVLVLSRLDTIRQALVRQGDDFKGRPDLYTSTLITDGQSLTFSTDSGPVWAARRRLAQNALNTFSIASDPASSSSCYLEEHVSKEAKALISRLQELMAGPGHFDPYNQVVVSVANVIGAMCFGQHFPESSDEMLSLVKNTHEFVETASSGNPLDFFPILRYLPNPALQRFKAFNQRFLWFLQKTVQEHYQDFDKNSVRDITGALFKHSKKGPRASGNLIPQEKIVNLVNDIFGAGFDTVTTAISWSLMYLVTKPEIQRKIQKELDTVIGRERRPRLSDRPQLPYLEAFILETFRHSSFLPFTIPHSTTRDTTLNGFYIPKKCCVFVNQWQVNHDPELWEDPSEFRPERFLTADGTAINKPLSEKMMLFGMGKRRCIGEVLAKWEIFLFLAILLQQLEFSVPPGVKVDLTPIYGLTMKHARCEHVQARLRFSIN

[5] = target: Cytochrome P450 2C9 (Homo sapiens, UniProt P11712)
[6] = Luminescence Cell-Based Dose Retest to Confirm Inhibitors of Cancer Stem Cells. [Related pubchem assays (depositor defined):AID2717, AID2721]; format: functional; details: Homo sapiens
[7] = cytotoxicity in HMLE control line with eGFP shRNA, dose response, counter-screen for HMLE_sh_ECad selective toxicity project, cell-based, HMLE_sh_eGFP, luminescence (AID 463074); format: functional, Homo sapiens;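 further: HMLE human mammary epithelial cells expressing control shRNA against eGFP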
[8] = tested on: HEK293; assay: NOD2 signaling inhibitors in MDP-stimulated cells, cell-based, uHTS, luminescence (AID 2001); format: functional; details: Homo sapiens
[9] = tested on: HEK293; assay: cells; format: functional, cell-based; details: Homo sapiens
[10] = tested on: HEK293; assay: cells; format: functional, cell-based; details: Homo sapiens; remark: listed apart in the source
[11] = tested on: HEK293; assay: cells; details: Homo sapiens; remark: listed apart in the source
[12] = tested on: HEK293; assay: NOD1 signaling inhibitors, primary screen, cell-based, luminescence, uHTS (AID 1578); format: functional; details: Homo sapiens
[13] = tested on: HEK293; assay: cells; format: functional, cell-based; details: Homo sapiens; remark: listed apart in the source
[14] = target: T2, Replicative DNA helicase DnaB (Mycobacterium tuberculosis, UniProt P9WMR3); assay: DnaB intein splicing inhibitors, dose response, biochemical, cell-free fluorescence (AID 449749); format: functional
T2 sequence (P9WMR3 whole entry): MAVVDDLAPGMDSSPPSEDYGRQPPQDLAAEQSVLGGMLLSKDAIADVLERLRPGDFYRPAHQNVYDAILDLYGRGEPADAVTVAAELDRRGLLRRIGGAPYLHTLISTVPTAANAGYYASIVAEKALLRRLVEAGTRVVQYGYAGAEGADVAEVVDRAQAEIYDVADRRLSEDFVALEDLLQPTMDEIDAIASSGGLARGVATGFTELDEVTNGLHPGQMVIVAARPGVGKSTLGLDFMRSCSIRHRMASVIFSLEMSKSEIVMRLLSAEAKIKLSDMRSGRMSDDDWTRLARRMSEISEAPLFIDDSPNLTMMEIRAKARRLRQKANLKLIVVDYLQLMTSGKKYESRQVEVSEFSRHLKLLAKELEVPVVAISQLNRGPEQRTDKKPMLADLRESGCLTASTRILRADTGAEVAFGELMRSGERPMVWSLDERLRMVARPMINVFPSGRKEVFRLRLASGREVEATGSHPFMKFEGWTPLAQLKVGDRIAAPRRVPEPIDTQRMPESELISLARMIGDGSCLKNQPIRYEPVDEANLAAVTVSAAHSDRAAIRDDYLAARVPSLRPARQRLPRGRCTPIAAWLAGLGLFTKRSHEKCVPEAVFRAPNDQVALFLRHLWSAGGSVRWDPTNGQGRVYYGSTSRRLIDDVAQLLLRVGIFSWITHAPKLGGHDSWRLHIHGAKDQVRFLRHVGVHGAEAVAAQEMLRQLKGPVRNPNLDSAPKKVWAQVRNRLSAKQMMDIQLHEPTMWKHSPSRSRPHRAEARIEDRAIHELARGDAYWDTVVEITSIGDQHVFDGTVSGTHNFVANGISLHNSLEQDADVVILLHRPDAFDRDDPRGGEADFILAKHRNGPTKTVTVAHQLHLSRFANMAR

[15] = target: T3, Protein RecA (Mycobacterium tuberculosis, UniProt P9WHJ3); assay: Fluorescence Cell-Free Homogeneous Dose Retest to Identify Inhibitors of RecA-Intein Splicing Activity. [Related pubchem assays (depositor defined):AID2097, AID2223, AID489010, AID492950]; format: functional
T3 sequence (P9WHJ3 whole entry): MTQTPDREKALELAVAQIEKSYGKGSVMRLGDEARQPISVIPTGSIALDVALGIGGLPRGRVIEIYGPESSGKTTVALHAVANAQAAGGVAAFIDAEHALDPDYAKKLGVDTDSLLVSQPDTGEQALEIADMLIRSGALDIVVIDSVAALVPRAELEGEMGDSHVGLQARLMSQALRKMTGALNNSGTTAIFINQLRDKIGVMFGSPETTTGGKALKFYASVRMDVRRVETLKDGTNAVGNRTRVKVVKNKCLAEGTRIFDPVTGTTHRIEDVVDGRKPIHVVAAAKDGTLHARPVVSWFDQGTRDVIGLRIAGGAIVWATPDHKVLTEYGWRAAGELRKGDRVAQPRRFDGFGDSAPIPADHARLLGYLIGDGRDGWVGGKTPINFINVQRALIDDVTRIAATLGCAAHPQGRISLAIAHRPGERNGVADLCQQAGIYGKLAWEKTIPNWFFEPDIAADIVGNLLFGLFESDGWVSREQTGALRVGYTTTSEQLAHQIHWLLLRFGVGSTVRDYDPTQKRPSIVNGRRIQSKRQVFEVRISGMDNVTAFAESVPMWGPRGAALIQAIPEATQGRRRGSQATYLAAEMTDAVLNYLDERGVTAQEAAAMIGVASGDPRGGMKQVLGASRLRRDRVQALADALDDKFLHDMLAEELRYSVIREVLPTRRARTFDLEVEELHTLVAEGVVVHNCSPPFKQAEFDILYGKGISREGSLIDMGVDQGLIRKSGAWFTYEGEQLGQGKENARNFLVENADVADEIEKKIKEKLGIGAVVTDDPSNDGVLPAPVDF

[16] = target: G-protein coupled receptor 55 (Homo sapiens, UniProt Q9Y2T6); assay: GPR55 antagonists, SAR follow-up, counter-screen for GPR35 antagonist project, imaging, image-based (AID 2397); format: functional
Sequence of G-protein coupled receptor 55 (Q9Y2T6 whole entry): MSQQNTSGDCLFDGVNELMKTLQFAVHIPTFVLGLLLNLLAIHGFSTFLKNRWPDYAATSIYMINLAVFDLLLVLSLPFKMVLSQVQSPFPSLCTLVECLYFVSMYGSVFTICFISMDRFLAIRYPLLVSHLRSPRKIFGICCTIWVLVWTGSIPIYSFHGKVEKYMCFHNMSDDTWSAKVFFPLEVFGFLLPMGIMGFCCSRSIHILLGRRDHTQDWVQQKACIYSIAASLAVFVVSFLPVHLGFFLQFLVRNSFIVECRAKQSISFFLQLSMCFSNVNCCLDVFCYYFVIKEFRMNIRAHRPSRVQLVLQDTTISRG

Sequence of Cytochrome P450 2D6 (P10635 whole entry): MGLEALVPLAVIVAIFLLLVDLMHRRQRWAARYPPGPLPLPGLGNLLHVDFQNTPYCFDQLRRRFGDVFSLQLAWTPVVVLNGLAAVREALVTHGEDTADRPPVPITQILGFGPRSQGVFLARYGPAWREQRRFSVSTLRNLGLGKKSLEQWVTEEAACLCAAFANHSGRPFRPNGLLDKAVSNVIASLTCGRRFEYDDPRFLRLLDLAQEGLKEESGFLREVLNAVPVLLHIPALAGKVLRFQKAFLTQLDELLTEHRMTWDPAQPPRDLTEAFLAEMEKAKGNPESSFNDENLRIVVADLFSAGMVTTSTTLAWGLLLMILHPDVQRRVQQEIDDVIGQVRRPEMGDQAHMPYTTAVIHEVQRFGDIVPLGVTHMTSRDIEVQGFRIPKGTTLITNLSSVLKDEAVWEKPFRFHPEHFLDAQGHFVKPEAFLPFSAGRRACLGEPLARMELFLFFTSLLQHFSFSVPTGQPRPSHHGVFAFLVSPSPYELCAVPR
Sequence of Cytochrome P450 2C9 (P11712 whole entry): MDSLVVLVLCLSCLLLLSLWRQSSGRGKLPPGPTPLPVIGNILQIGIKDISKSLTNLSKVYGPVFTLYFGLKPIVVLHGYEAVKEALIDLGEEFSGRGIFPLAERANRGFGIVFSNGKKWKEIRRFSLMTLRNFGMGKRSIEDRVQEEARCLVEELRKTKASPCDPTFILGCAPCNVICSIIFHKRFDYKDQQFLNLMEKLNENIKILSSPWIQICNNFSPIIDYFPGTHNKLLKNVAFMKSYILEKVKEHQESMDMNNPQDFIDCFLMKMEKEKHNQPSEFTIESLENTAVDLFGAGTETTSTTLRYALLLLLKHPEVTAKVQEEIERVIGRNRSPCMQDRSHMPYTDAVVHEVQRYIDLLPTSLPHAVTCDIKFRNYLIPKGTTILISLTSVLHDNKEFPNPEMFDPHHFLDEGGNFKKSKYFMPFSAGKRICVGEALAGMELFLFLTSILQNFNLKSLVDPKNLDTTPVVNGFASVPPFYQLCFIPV

## C=CCn1c(SC(C)C(=O)NCc2ccc3c(c2)OCO3)nc2scc(-c3ccccc3)c2c1=O (stereo not drawn)
[1]
  EC50: > 59.7 µM (inactive)
[2]
  AC50: 3.16 µM (inconclusive)
[3]
  EC50: > 59.7 µM (inactive)

## C=C[C@H]1CN2CC[C@@H]1C[C@H]2[C@@H](O)c1ccnc2ccc(OC)cc12.Cl.O
[4]
  AC50: inactive
[5]
  AC50: inactive

## C=CCc1cc(Cl)ccc1OCCOCCNC(C)CC (stereo not drawn)
[6]
  AC50: 21.5 µM (active)
[7]
  AC50: 34.5 µM (active)

## Cc1ccc(CSc2nc(O)c(C#N)c(-c3ccccc3)n2)cc1
[8]
  IC50: 12.9 µM (inactive)
[9]
  IC50: > 20 µM (inactive)
[10]
  IC50: > 20 µM (inactive)
[11]
  IC50: > 20 µM (inactive)
[12]
  EC50: 9.39 µM (active)
[13]
  IC50: > 20 µM (inactive)

## COc1cc(NC(=O)c2ccnc(N)c2)cc(C(=O)Nc2cccc(C(F)(F)F)c2)c1
[6]
  AC50: 17.4 µM (active)
[7]
  AC50: 39.5 µM (active)

## O=C(CCCN1C(=O)/C(=C\c2ccccc2)SC1=S)Nc1ccc(O)cc1
[14]
  AC50: 39 µM (active)
[15]
  EC50: 27.8 µM (active)
[16]
  IC50: > 32 µM (inactive)
